{"source": "patent US10968269B1", "about": "“MHC multimers in borrelia diagnostics and disease” (Agilent Technologies, Inc., priority 2008, dated 2021)", "key": {"[1]": {"system": "Bcl-X(L)-specific, CD8 positive T cells", "settings": "PBL from a breast cancer patient, 106 PBL/well in doublets, compared to the absence of added peptide, FIG. 11; cited from earlier work"}, "[2]": {"system": "T2 cells loaded with Bcl-X(L)173-182 peptide", "settings": "different concentrations of peptide, E:T ratio 1:1, FIG. 14; cited from earlier work"}, "[3]": {"molecular_target": "HLA-A*0201-β2m-… peptide-complex (human)", "assay": "sandwich ELISA: W6/32 coated, MHC complex added, HRP rabbit anti-β2m detection; reference: free β2m"}}}
{"substance": "YLNDHLEPWI (listed as Homo sapiens)", "values": [{"measurement": "ELISPOT detection of BclX(L) specific T-cells (number of spots, IFN-gamma producing T-cells)", "setting": "[1]", "value": "clearly shows the presence of BclX(L) specific T-cells"}, {"measurement": "effect of the peptide on killing of pulsed T2 target cells by clone 9", "setting": "[2]", "value": "significant even at low concentrations"}]}
{"substance": "W6/32 mouse-anti-HLA-ABC antibody (Dako M0736)", "values": [{"measurement": "OD450 ratio against the negative control β2m", "setting": "[3]", "value": "> 6", "unit": "fold"}]}
